Eight molecules from publication PMC12131314, “Design, synthesis and cytotoxic research of a novel antitumor model based on acrylamide–PABA analogs via β-tubulin inhibition” (RSC Advances, 2025) can be followed below.

Type in all cases: cell-based
Test [1] concerns MCF-7 breast cancer cell line. The experiment in a line: MTT cytotoxicity assay, MCF-7 breast cancer cell line. As to conditions: for IC50: MCF-7 breast carcinoma cells, triplicate. The procedure:
The MTT colorimetric technique was used to evaluate the cytotoxic activity of the newly produced acrylamide–PABA hybrids 4a–j against the MCF-7 breast cancer cell line.
(§1) S4.2.1. Cytotoxic activity evaluation
(§2) To measure the cytotoxic actvity of the synthesized acrylamide-PABA derivatives 4a-j in breast MCF-7 (ATCC Cat. No. HTB-22), liver HepG2 (ATCC Cat No. HB-8065), and normal breast MCF-10A (ATCC Cat. No. CRL 10317) cell lines, cell viability assay was assessed using MTT assay method. Cells at density of 1 x 104 were seeded in a 96-well plate at 37 °C for 24 h under 5% CO2. After incubation, the cells were treated with different concentrations of the test acrylamide-PABA hybrids 4a-j and incubated for 24 h, then 20 µl of MTT solution at 5 mg/mL was applied and incubated for 4 h at 37 °C. Dimethyl sulphoxide (DMSO) in volume of 100 µl was added to each well to dissolve the purple formazan that had formed. The color intensity of the formazan product, which represents the growth condition of the cells, is quantified by using an ELISA plate reader (EXL 800, USA) at 570 nm absorbance. The experimental conditions were carried out with at least three replicates, and the experiments were repeated at least three times. […]

Test [2] relates to HepG2 hepatocellular carcinoma cell line. The test is described as follows: MTT cytotoxicity assay, HepG2 hepatocellular carcinoma cell line. Conditions: Homo sapiens, HepG2 cells, triplicate. As for the experimental part:
as §1, §2
(In general: Formazan colour is commonly taken as a measure of viable cells.)

The next test relates to β-tubulin. The test is described as follows: β-tubulin polymerization inhibition (β-tubulin assay kit) in MCF-7 cells. As for the experimental part:
as §1
To measure the cytotoxic actvity of the synthesized acrylamide-PABA derivatives 4a-j in breast MCF-7 (ATCC Cat. No. HTB-22), liver HepG2 (ATCC Cat No. HB-8065), and normal breast MCF-10A (ATCC Cat. No. CRL 10317) cell lines, cell viability assay was assessed using MTT assay method. Cells at density of 1 x 104 were seeded in a 96-well plate at 37 °C for 24 h under 5% CO2. After incubation, the cells were treated with different concentrations of the test acrylamide-PABA hybrids 4a-j and incubated for 24 h, then 20 µl of MTT solution at 5 mg/mL was applied and incubated for 4 h at 37 °C. Dimethyl sulphoxide (DMSO) in volume of 100 µl was added to each well to dissolve the purple formazan that had formed. The color intensity of the formazan product, which represents the growth condition of the cells, is quantified by using an ELISA plate reader (EXL 800, USA) at 570 nm absorbance. The experimental conditions were carried out with at least three replicates, and the experiments were repeated at least three times.
S4.2.2. β-tubulin inhibition Assay […]
according to manufacturer’s instructions

Test [3] concerns MCF-10A (normal breast) cell line. The experiment in a line: MTT cytotoxicity assay, MCF-10A normal breast cell line. As to conditions: Homo sapiens, MCF-10A normal breast cells, triplicate. As for the experimental part:
as §1, §2

In a further test the test system is p53. The test is described as follows: qRT-PCR expression level of p53. Conditions: MCF-7 cells. The source says: (§3) The apoptotic markers related to apoptosis were crucial in preventing cancer.[30] p53 and other apoptotic regulators function as transcription factors that can activate several target genes in response to oncogenic stress, causing cell cycle arrest, apoptosis activation, and degeneration, while also promoting DNA repairs.[31] As a result, the apoptosis-related markers work together in order to ensure that cells with mutations that promote cancer (including broken genomes) are either repaired or permanently eliminated.[32] To further comprehend the molecular process involved in the apoptotic efficacy of the acrylamide–PABA analogs, the expression levels of p53, Bax, Bcl-2 and caspase 9 were evaluated. […] This was carried out in contrast to a negative control group. […] This was accompanied by a notable drop in the level of Bcl-2 (0.29-fold). […]
(§4) S4.2.4. qRT-PCR measurements of p53, Bax, Bcl2 and caspase 9 for compound […]
(§5) Real-time PCR for p53, BAX, Bcl-2 and caspase 9 genes expression was done using commercial Qiagen RNA extraction/ BioRad SYBER green PCR master mix according manufacturer's instructions. […]
(§6) Relative quantification of target genes was run on Rotor-Gene 6000 Series Software
In general terms: Real-time PCR tracks product formation cycle by cycle.

A further test concerns Bcl-2. The test is described as follows: qRT-PCR expression level of Bcl-2. Conditions: MCF-7 cells.
Excerpt: as §3, §4, §5, §6

In test [4] the test system is MCF-7 cells. The experiment in a line: Annexin V-FITC/PI apoptosis assay by flow cytometry. As to conditions: 4j at the IC50, 48 h. The procedure:
Understanding the biological mechanism of action of chemotherapeutic agents is an important aspect of the pharmaceutical development process.[28] […] Following cellular staining with Annexin V –FITC/propidium iodide (PI), FACS analysis was conducted. To differentiate between early and late apoptosis, both stains were used. (PI^−/Annexin V-FITC^+) represented early apoptotic cells, (PI^+/Annexin V-FITC^+) indicated late apoptotic cells, and (PI^+/Annexin V-FITC^−) represented necrotic cells. However, healthy cells were not stained (PI^−/Annexin V-FITC^−). […] This was clarified by compound 4j's modest degree of induced necrosis in contrast to its markedly elevated levels of induced early and late apoptosis. Acrylamide–PABA analog 4j induced both early apoptosis (22.07%) and late apoptosis (7.56%) in comparison with modest level of necrosis (3.19%).
S4.2.3. Apoptosis assay for compound 4j
Apoptosis in MCF-7 cells was investigated using fluorescent Annexin V-FITC/ PI detection kit (BioVision Annexin V-FITC Apoptosis Detection Kit, Catalog #: K101) by flow cytometry assay. MCF-7 cells at a density of 2 × 10^5 per well were treated with compound 4j at the IC50 (µM) for 48 h, then the cells were harvested and stained with Annexin V-FITC/ PI dye for 15 min in the dark at 37 °C. The samples were immediately analyzed using FACS Calibur flow cytometer (Becton and Dickinson, […]
as §4
Real-time PCR for p53, BAX, Bcl-2 and caspase 9 genes expression was done using commercial Qiagen RNA extraction/ BioRad SYBER green PCR master mix according manufacturer's instructions. Briefly, 2 µl of cDNA template, 10 pMol of each forward and reverse primer, 10 µl of 2X Master Mix and to 20 µl total reaction mixture volume by nuclease free water and then was introduced to thermal cycler […]
(1 picture or pasted object on this page, not shown here)

For the next test, the system named is caspase 9. The experiment in a line: qRT-PCR expression level of caspase 9. As to conditions: MCF-7 cells.
Excerpt: as §3, §4, §5, §6

Test [5] relates to MCF-7 cells. The experiment in a line: Cell cycle analysis (PI, flow cytometry). Conditions: 4j at the IC50, 48 h. The source says:
In cancer mass development, the disruption of the cell cycle can be an important event. Cellular cycle progression has two primary checkpoints: G1/S before DNA replication and G2/M before mitosis.[33] A p53-responsive gene such as p21^wafi regulates the G1/S checkpoint and mediates cell cycle arrest.[34] Since the cytotoxic activity of the synthesized analogs against MCF-7 cells was induced by the enhanced apoptotic levels, we examined whether these analogs further induced cell cycle arrest. […] As can been seen in Fig. 5, the cellular distribution at each stage is depicted in the histogram of the cellular cycle caused by the acrylamide–PABA hybrid 4j. […]
instrument (Thermo Scientific, USA). The cycling parameters for the PCR amplification were achieved by initial denaturation at 95 °C for 3 minutes followed by 40 cycles of 94 °C for 15 seconds and annealing/extension step at 60 °C for 1 min.
Relative quantification of target genes was run on Rotor-Gene 6000 Series Software […]
Table 1: The primer sequences for Real Time PCR assay
S4.2.5. Cell cycle analysis of compound 4j
Cell cycle analysis in MCF-7 cells was investigated using fluorescent Annexin V-FITC/ PI detection kit (BioVision EZCellTM Cell Cycle Analysis Kit Catalog #K920) by flow cytometry assay. MCF-7 cells at a density of 2 × 10^5 per well were harvested and washed twice in PBS. After that, the cells were incubated at 37 °C and 5% CO2.
The medium was incubated with the tested compound 4j at the IC50 (µM) for 48 h, washed twice in PBS, fixed with 70% ethanol, rinsed again with PBS. Afterward, medium was stained with DNA fluorochrome PI for 15 min at 37 °C. The samples were immediately analyzed using Facs Calibur flow cytometer (Becton and Dickinson, Heidelberg, Germany).
S4.3. Molecular modeling study
Molecular docking simulations were conducted using AutoDock Vina to investigate ligand interactions with the tubulin complex. The three-dimensional (3D) structure of the tubulin heterodimer was obtained from the Protein Data Bank (PDB ID: 1SA0), with chain B of the colchicine-bound complex selected as the docking target. […]

The next test relates to Bax. The test is described as follows: qRT-PCR expression level of Bax. As to conditions: MCF-7 cells.
Excerpt: as §3, §4, §5, §6

SMILES strings stand for the structures.

As to `COc1cc(C(=O)N/C(=C\c2ccc(F)cc2)C(=O)NNC(=O)c2ccc(N)cc2)cc(OC)c1OC` [4a, (Z)-N-(3-(2-(4-Aminobenzoyl)hydrazineyl)-1-(4-fluorophenyl)-3-oxoprop-1-en-2-yl)-3,4,5-trimethoxybenzamide], the IC50 (commonly the point on the concentration scale where inhibition reaches its midpoint) in test [1] (Homo sapiens, MCF7, MTT) worked out at 2.99 ± 0.1 µM; in [2], 4.87 ± 0.13 µM; in test [3], 19.8 ± 0.62 µM. In addition, the “percentage inhibition of β-tubulin polymerization” value in the test with β-tubulin was 78.19%.

In [1] (Homo sapiens, MCF7, MTT), `COc1cc(C(=O)N/C(=C\c2ccc(Cl)cc2)C(=O)NNC(=O)c2ccc(N)cc2)cc(OC)c1OC` [4b, (Z)-N-(3-(2-(4-Aminobenzoyl)hydrazineyl)-1-(4-chlorophenyl)-3-oxoprop-1-en-2-yl)-3,4,5-trimethoxybenzamide] showed a half-maximal inhibitory concentration (IC50) of 25.3 ± 0.86 µM.

In the case of `COc1cc(C(=O)N/C(=C\c2ccc([N+](=O)[O-])cc2)C(=O)NNC(=O)c2ccc(N)cc2)cc(OC)c1OC` [4c, (Z)-N-(3-(2-(4-Aminobenzoyl)hydrazineyl)-1-(4-nitrophenyl)-3-oxoprop-1-en-2-yl)-3,4,5-trimethoxybenzamide], the IC50 is over 30 µM in test [1] (Homo sapiens, MCF7, MTT) and 39.7 ± 1.34 µM in test [1] (MTT).

Consider `COc1cc(C(=O)N/C(=C\c2ccc(N(C)C)cc2)C(=O)NNC(=O)c2ccc(N)cc2)cc(OC)c1OC` [4f, (Z)-N-(3-(2-(4-Aminobenzoyl)hydrazineyl)-1-(4-(dimethylamino)phenyl)-3-oxoprop-1-en-2-yl)-3,4,5-trimethoxybenzamide], for which, in [1] (Homo sapiens, MCF7, MTT), the IC50 worked out at 27.2 ± 0.92 µM.

As to `COc1ccc(/C=C(\NC(=O)c2cc(OC)c(OC)c(OC)c2)C(=O)NNC(=O)c2ccc(N)cc2)cc1OC` [4g, (Z)-N-(3-(2-(4-Aminobenzoyl)hydrazineyl)-1-(3,4-dimethoxyphenyl)-3-oxoprop-1-en-2-yl)-3,4,5-trimethoxybenzamide], in [1] (Homo sapiens, MCF7, MTT), the 50% inhibitory concentration (IC50) is 17.1 ± 0.58 µM.

`COc1cc(C(=O)N/C(=C\c2cc(Br)c(O)c(Br)c2)C(=O)NNC(=O)c2ccc(N)cc2)cc(OC)c1OC` [4h, (Z)-N-(3-(2-(4-Aminobenzoyl)hydrazineyl)-1-(3,5-dibromo-4-hydroxyphenyl)3-oxoprop-1-en-2-yl)-3,4,5-trimethoxybenzamide] showed a half-inhibitory concentration (IC50) in [1] (Homo sapiens, MCF7, MTT) of 19.9 ± 0.67 µM.

The molecule `COc1cc(/C=C(\NC(=O)c2cc(OC)c(OC)c(OC)c2)C(=O)NNC(=O)c2ccc(N)cc2)cc(OC)c1OC` [4i, (Z)-N-(3-(2-(4-Aminobenzoyl)hydrazineyl)-3-oxo-1-(3,4,5-trimethoxyphenyl)prop-1-en-2-yl)-3,4,5-trimethoxybenzamide] returned a concentration for half-maximal inhibition (IC50) in test [1] (Homo sapiens, MCF7, MTT) of 4.51 ± 0.15 µM.

On to `COc1cc(C(=O)N/C(=C\c2ccco2)C(=O)NNC(=O)c2ccc(N)cc2)cc(OC)c1OC` [4j, (Z)-N-(3-(2-(4-Aminobenzoyl)hydrazineyl)-1-(furan-2-yl)-3-oxoprop-1-en-2-yl)-3,4,5-trimethoxybenzamide], for which the half-maximal inhibitory concentration (IC50) in [1] (Homo sapiens, MCF7, MTT) amounted to 1.83 ± 0.06 µM. Also, the “fold more potent than the reference drug Col (MCF-7 IC50)” value in test [1] (MCF-7 cells, relative to Col) was 1.9 fold. Besides, in the test on p53, the “expression level of p53 compared to negative controls” value was determined as 5.14 fold. Besides, the “level of Bcl-2 compared to negative controls” value in the test on Bcl-2 is on record as 0.29 fold. For the same molecule, inhibition in [2] was half-maximal at 2.14 ± 0.09 µM (IC50). In addition, in the test with MCF-7 cells [4], the early apoptosis is listed as 22.07%, the late apoptosis worked out at 7.56% and the necrosis is 3.19%. In addition, the “expression level of caspase 9 compared to negative controls” value in the test on caspase 9 was 9.89 fold. Besides, the “cell population at S phase” value with MCF-7 cells [5] (negative control 29.51%) is 18.83%. Besides, the “cell population at G1 phase” value in the test with MCF-7 cells [5] (negative control 61.08%) is recorded as 46.99%. Moreover, the “cell population at G2/M phase” value in the test with MCF-7 cells [5] (untreated control 9.41%) came to 34.18%. Moreover, the “expression level of Bax compared to negative controls” value in the test with Bax is 8.36 fold. The “percentage inhibition of β-tubulin polymerization” value in the test on β-tubulin was 81.51%. For the same molecule, the half-maximal inhibitory concentration (IC50) in [3] is 23.2 ± 1.06 µM.
